Key:
human CD73 = molecular target: T1, human CD73 (Homo sapiens, UniProt P21589); assay: Inhibition of 5′-Nucleotidase Activity of CD73 (Assay 1); assay type: biochemical; settings: human CD73 4 ng/ml, 50 μM CMP, 20 min at RT, malachite green readout; read-out: Assay 1: IC50, inhibition of 5′-nucleotidase activity of CD73
T1 construct: purchased R&D Systems 5795-EN-010
T1 sequence (P21589 27-549): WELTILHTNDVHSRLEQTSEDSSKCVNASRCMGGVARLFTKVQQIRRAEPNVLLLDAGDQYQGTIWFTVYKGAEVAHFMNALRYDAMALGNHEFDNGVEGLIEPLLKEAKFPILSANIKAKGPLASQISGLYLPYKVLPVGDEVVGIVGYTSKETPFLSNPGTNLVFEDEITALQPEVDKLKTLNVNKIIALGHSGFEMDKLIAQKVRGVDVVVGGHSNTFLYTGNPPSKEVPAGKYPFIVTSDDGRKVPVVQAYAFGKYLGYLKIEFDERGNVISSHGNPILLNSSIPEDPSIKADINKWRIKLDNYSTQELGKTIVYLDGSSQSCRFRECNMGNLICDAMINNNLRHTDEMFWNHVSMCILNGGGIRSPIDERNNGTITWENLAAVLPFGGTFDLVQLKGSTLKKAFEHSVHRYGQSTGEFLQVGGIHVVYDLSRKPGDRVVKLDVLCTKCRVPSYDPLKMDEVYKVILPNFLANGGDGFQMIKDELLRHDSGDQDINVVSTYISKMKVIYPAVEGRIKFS
Procedure, shortened: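 Human CD73 (4 ng/ml final) was incubated with 50 μM CMP in 25 mM Tris-HCl pH 7.4, 0.005% Brij-35 for 20 min at RT. Reactions were stopped with malachite green reagent and absorbance was read at 620 nm. IC50 came from a 4-parameter logistic fit.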

[1] = molecular target: T2, CD73 on U138 neuroglioma cells (Homo sapiens, UniProt P21589); assay: Inhibition of Ecto-5′-Nucleotidase Activity in U138 Neuroglioma Cells (Assay 2); assay type: cell-based; settings: 50 μM CMP, 2 hr at 37° C., malachite green readout, read-out: Assay 2: IC50, inhibition of ecto-5′-nucleotidase activity in U138 neuroglioma cells
T2 construct: U138 neuroglioma cells, which express CD73 on their surface; endogenous in cells; host or cells: U138 neuroglioma cells (ATCC)
T2 sequence (P21589 27-549): T1 sequence (P21589 27-549)
Procedure, shortened: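 Whole-cell CD73 activity in U138 human neuroglioma cells seeded the day before, washed free of phosphate, then given test compound dilutions with 50 μM CMP in HEPES-buffered saline, pH 7.4, DMSO ≤0.1%. Incubated 2 hr at 37° C; released inorganic phosphate in supernatant measured by malachite green; IC50 by nonlinear regression.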

Structure (SMILES)	IC50 (human CD73) [nM]	IC50 [1] [nM]
CS(=O)(=O)c1ccccc1CC(OC[C@H]1O[C@@H](n2cnc3c(N)nc(Cl)nc32)[C@H](O)[C@@H]1O)(C(=O)O)C(=O)O [Example 86, 2-(((2R,3S,4R,5R)-5-(6-amino-2-chloro-9H-purin-9-yl)-3,4-dihydroxytetrahydrofuran-2-yl)methoxy)-2-(2-(methylsulfonyl)benzyl)malonic acid]	< 100	100 to 1000
CCOC(=O)C(OC[C@H]1C[C@@H](n2nnc3c(NC[C@@H]4CCOC4)nc(Cl)nc32)[C@H](O)[C@@H]1O)P(=O)(O)O (stereo partly drawn) [Example 88, (1-(((1R,2R,3S,4R)-4-(5-chloro-7-((((S)-tetrahydrofuran-3-yl)methyl)amino)-3H-[1,2,3]triazolo[4,5-d]pyrimidin-3-yl)-2,3-dihydroxycyclopentyl)methoxy)-2-ethoxy-2-oxoethyl)phosphonic Acid]	< 100	< 100
CCOC(=O)C(OC[C@H]1C[C@@H](n2nnc3c(NC[C@H]4CCOC4)nc(Cl)nc32)[C@H](O)[C@@H]1O)P(=O)(O)O (stereo partly drawn) [Example 89, (1-(((1R,2R,3S,4R)-4-(5-chloro-7-((((R)-tetrahydrofuran-3-yl)methyl)amino)-3H-[1,2,3]triazolo[4,5-d]pyrimidin-3-yl)-2,3-dihydroxycyclopentyl)methoxy)-2-ethoxy-2-oxoethyl)phosphonic Acid]	< 100	< 100
CCOC(=O)C(OC[C@H]1C[C@@H](n2nnc3c(N[C@@H]4CCOC4)nc(Cl)nc32)[C@H](O)[C@@H]1O)P(=O)(O)O (stereo partly drawn) [Example 90, (1-(((1R,2R,3S,4R)-4-(5-chloro-7-(((R)-tetrahydrofuran-3-yl)amino)-3H-[1,2,3]triazolo[4,5-d]pyrimidin-3-yl)-2,3-dihydroxycyclopentyl)methoxy)-2-ethoxy-2-oxoethyl)phosphonic Acid]	< 100	< 100
CCOC(=O)C(OC[C@H]1C[C@@H](n2nnc3c(N[C@H]4CCOC4)nc(Cl)nc32)[C@H](O)[C@@H]1O)P(=O)(O)O (stereo partly drawn) [Example 91, (1-(((1R,2R,3S,4R)-4-(5-chloro-7-(((S)-tetrahydrofuran-3-yl)amino)-3H-[1,2,3]triazolo[4,5-d]pyrimidin-3-yl)-2,3-dihydroxycyclopentyl)methoxy)-2-ethoxy-2-oxoethyl)phosphonic Acid]	< 100	< 100
CCOC(=O)C(OC[C@H]1C[C@@H](n2nnc3c(NC4CCCC4)nc(Cl)nc32)[C@H](O)[C@@H]1O)P(=O)(O)O (stereo partly drawn) [Example 92, (1-(((1R,2R,3S,4R)-4-(5-chloro-7-(cyclopentylamino)-3H-[1,2,3]triazolo[4,5-d]pyrimidin-3-yl)-2,3-dihydroxycyclopentyl)methoxy)-2-ethoxy-2-oxoethyl)phosphonic Acid]	< 100	< 100
Nc1nc(Cl)nc2c1ncn2[C@@H]1O[C@H](COC(Cc2ccccn2)(C(=O)O)C(=O)O)[C@@H](O)[C@H]1O [Example 93, 2-(((2R,3S,4R,5R)-5-(6-amino-2-chloro-9H-purin-9-yl)-3,4-dihydroxytetrahydrofuran-2-yl)methoxy)-2-(pyridin-2-ylmethyl)malonic acid]	< 100	< 100
Nc1nc(Cl)nc2c1ncn2[C@@H]1O[C@H](COC(Cc2nccs2)(C(=O)O)C(=O)O)[C@@H](O)[C@H]1O [Example 94, 2-(((2R,3S,4R,5R)-5-(6-amino-2-chloro-9H-purin-9-yl)-3,4-dihydroxytetrahydrofuran-2-yl)methoxy)-2-(thiazol-2-ylmethyl)malonic acid]	< 100	< 100
Nc1nc(Cl)nc2c1ncn2[C@@H]1O[C@H](COC(Cc2cc(F)cc(F)c2)(C(=O)O)C(=O)O)[C@@H](O)[C@H]1O [Example 96, 2-(((2R,3S,4R,5R)-5-(6-amino-2-chloro-9H-purin-9-yl)-3,4-dihydroxytetrahydrofuran-2-yl)methoxy)-2-(3,5-difluorobenzyl)malonic acid]	< 100	< 100

From US10654884B2 (Vitae Pharmaceuticals, Inc., priority 2014, dated 2020)
